Tests used:
Type in all cases: cell-based
[1] = target: T1, human sodium channels Nav 1.8 (Homo sapiens (Human), UniProt Q9Y5Y9); assay: Automated whole-cell voltage-clamp (ScreenPatch 384P), Nav 1.8 sodium current, Protocol 2; details: Protocol 2 (holding −100 mV, inactivation step −40 mV 8 s, 0.05 Hz); CHO cells expressing human Nav 1.8; read-out: Nav1.8 IC50
Procedure: (§1) Biological assays were performed on Chinese hamster ovary (CHO) cells expressing the human sodium channels Nav 1.8 and Nav 1.7 stably.
(§2) The experimental voltage-clamp protocol using the whole cell configuration was established on the automated ScreenPatch® 384P platform (SP384PE, Nanion Technologies, Livingston, NJ) and recording of the results was performed with a Nanion 384-well Patch Clamp chip (NPC) (Nanion Technologies, Livingston, NJ).
(§3) Compounds of Formula (I), were diluted in eight concentrations in the extracellular solution composed of physiological saline, buffered with HEPES (mM): NaCl, 137; KCl, 4; CaCl2, 3.8; MgCl2, 1; HEPES, 10; Glucose, 10; pH 7.4. The […], 50; CsF, 90; MgCl2, 5; EGTA, 5; HEPES, 10; pH 7.2. The duration of exposure of each compound with the cells expressing Nav 1.7 or Nav 1.8 was at least five minutes and the assays were performed at room temperature.
(§4) The measurements of the sodium currents of Nav 1.8 and Nav 1.7 were obtained using the voltage protocols described below: • Protocol 1: A holding voltage of −90 mV was established followed by a voltage phase of 200 ms to −120 mV, followed by a voltage step of 10 mV for 1 second for Nav 1.8 or 0 mV for Nav 1.7, followed by a step of −100 mV for 20 ms, followed by a step of 20 ms for 10 mV for Nav 1.8 or 0 mV for Nav 1.7 (TP1A) before returning to the holding voltage of −90 mV. • Protocol 2: A holding voltage of −100 mV was established followed by an inactivation voltage step at −40 mV for 8 seconds, followed by a −100 mV step for […], followed by a 20 ms step for 10 mV for Nav 1.8 or 0 mV for Nav 1.7 (TP1A) before returning to the holding voltage of −100 mV.
(§5) Protocols were repeated at a frequency of 0.1 Hz (Protocol 1) or 0.05 Hz (Protocol 2) and current amplitude was quantified over the TP1A phase log. The variation in the peak amplitude of the current was evaluated according to the Formula described below, after exposure of the cells expressing the channels, at each concentration of the different compounds:
(§6) [formula] • where |TP1A, basal, and |TP1A, molecule represent the entry peaks of sodium currents into TP1A prior to exposure to the compound and in the presence of the compound, respectively.
(§7) The decrease in peak current amplitude, after exposure of the cells to the compounds, was used to calculate the percent relative blocking of the channels relative to the positive control according to the Formula below:
(§8) [formula] • where % V and % CP represent the averages of the values of current inhibition with a vehicle (DMSO) and positive controls, respectively. The sodium currents of the positive control were considered as 100%.
(§9) [formula] • where [Test] represents the concentration of the evaluated molecule, IC50 is the concentration of the compound that generates half of the maximum inhibition, N is the Hill's coefficient and % Block′ is the percentage of the sodium channel current (Nav 1.8 and Nav 1.7) inhibited at each concentration of the evaluated molecule. Data were obtained by non-linear least squares regression with XLfit for Excel (Microsoft, Redmond, WA).
(§10) Compounds were tested in at least one assay to obtain the IC50 value.

[2] = target: T2, human sodium channels Nav 1.7 (Homo sapiens (Human), UniProt Q15858); assay: Automated whole-cell voltage-clamp (ScreenPatch 384P), Nav 1.7 sodium current, Protocol 2; details: Protocol 2 (holding −100 mV, inactivation step −40 mV 8 s, 0.05 Hz); CHO cells expressing human Nav 1.7; read-out: Nav1.7 IC50
Procedure: as §1, §2, §3, §4, §5, §6, §7, §8, §9, §10

[3] = target: T1, human sodium channels Nav 1.8; assay: Automated whole-cell voltage-clamp (ScreenPatch 384P), Nav 1.8 sodium current, Protocol 1; details: Protocol 1 (holding −90 mV, 0.1 Hz); CHO cells expressing human Nav 1.8; room temperature; read-out: Nav1.8 IC50
Procedure: as §1, §2, §3, §4, §5, §6, §7, §8, §9, §10

[4] = target: T2, human sodium channels Nav 1.7; assay: Automated whole-cell voltage-clamp (ScreenPatch 384P), Nav 1.7 sodium current, Protocol 1; details: Protocol 1 (holding −90 mV, 0.1 Hz); CHO cells expressing human Nav 1.7; room temperature; read-out: Nav1.7 IC50
Procedure: as §1, §2, §3, §4, §5, §6, §7, §8, §9, §10

T1 sequence (Q9Y5Y9 whole entry): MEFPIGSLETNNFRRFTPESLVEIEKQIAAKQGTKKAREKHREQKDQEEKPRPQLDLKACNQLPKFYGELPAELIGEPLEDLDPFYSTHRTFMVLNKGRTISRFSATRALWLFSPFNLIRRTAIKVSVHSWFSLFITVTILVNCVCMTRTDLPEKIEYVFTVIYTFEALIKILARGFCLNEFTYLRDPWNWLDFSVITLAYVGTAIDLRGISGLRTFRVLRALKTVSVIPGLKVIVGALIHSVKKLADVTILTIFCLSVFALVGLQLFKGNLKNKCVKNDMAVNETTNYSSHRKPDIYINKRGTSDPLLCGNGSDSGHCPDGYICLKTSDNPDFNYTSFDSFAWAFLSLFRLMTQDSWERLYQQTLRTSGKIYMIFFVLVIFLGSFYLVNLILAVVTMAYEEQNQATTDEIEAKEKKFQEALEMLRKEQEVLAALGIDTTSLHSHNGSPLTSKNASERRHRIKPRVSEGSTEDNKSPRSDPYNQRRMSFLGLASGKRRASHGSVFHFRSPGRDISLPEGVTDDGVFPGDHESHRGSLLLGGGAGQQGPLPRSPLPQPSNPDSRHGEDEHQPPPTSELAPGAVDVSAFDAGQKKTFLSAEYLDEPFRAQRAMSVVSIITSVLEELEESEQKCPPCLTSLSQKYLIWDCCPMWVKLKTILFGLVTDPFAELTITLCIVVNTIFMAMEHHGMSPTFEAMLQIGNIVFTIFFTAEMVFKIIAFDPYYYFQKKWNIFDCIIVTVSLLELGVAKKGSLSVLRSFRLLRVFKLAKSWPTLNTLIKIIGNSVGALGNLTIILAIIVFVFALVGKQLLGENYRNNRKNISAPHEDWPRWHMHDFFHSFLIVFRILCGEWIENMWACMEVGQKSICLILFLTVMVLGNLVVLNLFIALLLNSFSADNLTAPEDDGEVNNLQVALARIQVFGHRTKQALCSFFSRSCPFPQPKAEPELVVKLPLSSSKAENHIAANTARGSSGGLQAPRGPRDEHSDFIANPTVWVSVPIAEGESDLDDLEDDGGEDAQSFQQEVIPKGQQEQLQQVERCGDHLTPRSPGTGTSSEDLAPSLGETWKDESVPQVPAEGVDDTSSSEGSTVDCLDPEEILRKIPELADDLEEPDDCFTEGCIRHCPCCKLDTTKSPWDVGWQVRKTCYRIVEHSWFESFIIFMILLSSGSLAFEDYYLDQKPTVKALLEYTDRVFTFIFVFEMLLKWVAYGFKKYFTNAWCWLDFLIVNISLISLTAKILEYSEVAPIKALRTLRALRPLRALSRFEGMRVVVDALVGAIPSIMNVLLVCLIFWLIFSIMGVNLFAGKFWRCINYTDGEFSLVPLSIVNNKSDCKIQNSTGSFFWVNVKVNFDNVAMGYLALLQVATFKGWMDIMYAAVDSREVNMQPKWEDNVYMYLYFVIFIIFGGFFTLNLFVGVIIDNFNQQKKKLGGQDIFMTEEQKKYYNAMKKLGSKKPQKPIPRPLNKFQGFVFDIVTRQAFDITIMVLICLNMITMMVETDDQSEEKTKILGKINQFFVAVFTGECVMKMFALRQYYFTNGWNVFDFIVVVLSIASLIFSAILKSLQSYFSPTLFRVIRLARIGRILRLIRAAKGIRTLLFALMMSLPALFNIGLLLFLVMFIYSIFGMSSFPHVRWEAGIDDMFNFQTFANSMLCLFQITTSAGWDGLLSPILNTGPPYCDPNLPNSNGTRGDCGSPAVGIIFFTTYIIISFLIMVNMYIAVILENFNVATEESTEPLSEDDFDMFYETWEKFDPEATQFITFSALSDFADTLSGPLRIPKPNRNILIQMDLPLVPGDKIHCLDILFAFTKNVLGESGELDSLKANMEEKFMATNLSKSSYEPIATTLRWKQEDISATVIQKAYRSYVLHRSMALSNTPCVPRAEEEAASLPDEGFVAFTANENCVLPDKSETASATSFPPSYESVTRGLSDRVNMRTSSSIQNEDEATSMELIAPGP
T2 sequence (Q15858 whole entry): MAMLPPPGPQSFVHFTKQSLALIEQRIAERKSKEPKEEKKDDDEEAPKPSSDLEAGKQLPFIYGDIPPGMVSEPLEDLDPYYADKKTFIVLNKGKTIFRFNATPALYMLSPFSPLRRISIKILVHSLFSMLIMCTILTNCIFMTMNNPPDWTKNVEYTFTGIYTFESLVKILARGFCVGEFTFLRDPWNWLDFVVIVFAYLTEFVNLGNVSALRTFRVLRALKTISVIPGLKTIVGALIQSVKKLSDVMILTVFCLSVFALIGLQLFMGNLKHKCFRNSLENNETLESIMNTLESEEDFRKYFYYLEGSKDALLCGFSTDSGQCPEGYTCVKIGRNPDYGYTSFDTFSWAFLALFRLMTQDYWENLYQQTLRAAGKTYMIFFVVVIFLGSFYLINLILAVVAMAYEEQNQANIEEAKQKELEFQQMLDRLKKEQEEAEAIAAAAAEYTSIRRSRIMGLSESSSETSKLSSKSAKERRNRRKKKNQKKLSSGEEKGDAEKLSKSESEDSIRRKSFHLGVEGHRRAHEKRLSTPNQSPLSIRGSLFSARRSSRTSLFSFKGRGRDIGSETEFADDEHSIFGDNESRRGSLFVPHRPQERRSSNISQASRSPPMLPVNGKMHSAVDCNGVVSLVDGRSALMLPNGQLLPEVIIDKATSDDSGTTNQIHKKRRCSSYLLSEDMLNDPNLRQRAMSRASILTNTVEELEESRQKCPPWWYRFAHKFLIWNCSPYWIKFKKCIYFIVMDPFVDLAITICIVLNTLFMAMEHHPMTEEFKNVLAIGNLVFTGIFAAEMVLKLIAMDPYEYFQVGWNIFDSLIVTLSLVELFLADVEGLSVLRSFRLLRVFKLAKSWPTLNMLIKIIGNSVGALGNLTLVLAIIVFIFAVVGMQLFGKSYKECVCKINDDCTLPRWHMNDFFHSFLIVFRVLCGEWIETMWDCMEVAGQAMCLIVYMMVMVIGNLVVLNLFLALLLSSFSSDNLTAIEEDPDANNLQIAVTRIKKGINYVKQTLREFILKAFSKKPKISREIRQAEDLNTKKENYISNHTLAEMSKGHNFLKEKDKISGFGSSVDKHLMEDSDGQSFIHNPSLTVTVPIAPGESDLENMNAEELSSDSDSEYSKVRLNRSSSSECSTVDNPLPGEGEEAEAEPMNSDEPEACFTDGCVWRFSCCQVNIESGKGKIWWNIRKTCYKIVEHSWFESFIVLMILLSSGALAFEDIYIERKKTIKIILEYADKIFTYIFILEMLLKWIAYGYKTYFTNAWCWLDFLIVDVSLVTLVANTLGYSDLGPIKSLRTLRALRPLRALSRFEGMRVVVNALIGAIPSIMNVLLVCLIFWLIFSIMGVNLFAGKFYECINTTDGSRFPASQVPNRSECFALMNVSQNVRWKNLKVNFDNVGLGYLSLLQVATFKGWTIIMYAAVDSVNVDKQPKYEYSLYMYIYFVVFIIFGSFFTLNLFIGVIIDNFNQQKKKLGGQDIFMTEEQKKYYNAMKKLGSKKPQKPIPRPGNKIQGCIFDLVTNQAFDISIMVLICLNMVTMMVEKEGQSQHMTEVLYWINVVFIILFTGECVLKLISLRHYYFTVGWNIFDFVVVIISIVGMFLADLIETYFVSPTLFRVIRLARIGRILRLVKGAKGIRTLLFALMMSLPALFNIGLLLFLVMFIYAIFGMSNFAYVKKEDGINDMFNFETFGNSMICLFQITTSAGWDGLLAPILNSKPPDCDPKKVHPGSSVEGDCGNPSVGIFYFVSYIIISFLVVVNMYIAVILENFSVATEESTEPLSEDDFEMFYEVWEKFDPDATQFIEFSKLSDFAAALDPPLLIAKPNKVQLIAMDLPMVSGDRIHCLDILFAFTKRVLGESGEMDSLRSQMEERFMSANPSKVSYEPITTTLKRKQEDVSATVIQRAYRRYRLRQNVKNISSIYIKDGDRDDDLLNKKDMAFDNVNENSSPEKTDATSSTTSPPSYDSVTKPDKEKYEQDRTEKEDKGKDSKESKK

| SMILES | IC50 [1] [µM] | IC50 [2] [µM] | IC50 [3] [µM] | IC50 [4] [µM] |
| --- | --- | --- | --- | --- |
| COc1ccc(-c2cccc(C(=O)N/N=C/c3cc(OC)cc(OC)c3)n2)cc1 [Compound 14, (E)-N′-(3,5-dimethoxybenzylidene)-6-(4-methoxyphenyl) picolinohydrazide] | 0.754 | 1.32 | – | – |
| CCCOc1ccc(-c2cccc(C(=O)N/N=C/c3cc(OC)cc(OC)c3)n2)cc1 [Compound 15, (E)-N′-(3,5-dimethoxybenzylidene)-6-(4-propoxyphenyl) picolinohydrazide] | 0.297 | 0.272 | – | – |
| CCOc1ccc(-c2cccc(C(=O)N/N=C/c3cc(OC)cc(OC)c3)n2)cc1 [Compound 31, (E)-N′-(3,5-dimethoxybenzylidene)-6-(4-ethoxyphenyl) picolinohydrazide] | 0.224 | 0.444 | – | – |
| CCOc1ccc(-c2cccc(C(=O)N/N=C/c3c(Cl)cccc3Cl)n2)cc1 [Compound 34, (E)-N′-(2,6-dichlorobenzylidene)-6-(4-ethoxyphenyl) picolinohydrazide] | – | – | > 10 | > 10 |
| CCOc1ccc(-c2cccc(C(=O)N/N=C/c3c(F)cccc3Cl)n2)cc1 [Compound 35, (E)-N′-(2-chloro-6-fluorobenzylidene)-6-(4-ethoxyphenyl) picolinohydrazide] | – | – | > 10 | > 10 |
| CCOc1ccc(-c2cccc(C(=O)N/N=C/c3ccccc3OC)n2)cc1 [Compound 36, (E)-6-(4-ethoxyphenyl)-N′-(2-methoxybenzylidene) picolinohydrazide] | – | – | 8.43 | 7.06 |
| CCOc1ccc(-c2cccc(C(=O)N/N=C/c3cccnc3N3CCOCC3)n2)cc1 [Compound 37, (E)-6-(4-ethoxyphenyl)-N′-((2-morpholinopyridin-3-yl)methylene) picolinohydrazide] | – | – | > 10 | 8.76 |
| COc1cc(/C=N/NC(=O)c2cc(-c3ccc(Cl)cc3)ccn2)cc(OC)c1 [Compound 42, (E)-4-(4-chlorophenyl)-N′-(3,5-dimethoxybenzylidene) picolinohydrazide] | – | – | > 10 | > 10 |
| O=C(N/N=C/c1cccs1)c1cc(-c2ccc(Cl)cc2)ccn1 [Compound 43, (E)-4-(4-chlorophenyl)-N′-(thiophen-2-ylmethylene) picolinohydrazide] | – | – | > 10 | > 10 |
| CCOc1ccc(-c2ccnc(C(=O)N/N=C/c3cc(OC)cc(OC)c3)c2)cc1 [Compound 44, (E)-N′-(3,5-dimethoxybenzylidene)-4-(4-ethoxyphenyl) picolinohydrazide] | – | – | > 10 | > 10 |
| CCOc1ccc(-c2ccnc(C(=O)N/N=C/c3cccs3)c2)cc1 [Compound 45, (E)-4-(4-ethoxyphenyl)-N′-(thiophen-2-ylmethylene) picolinohydrazide] | – | – | > 10 | > 10 |
| COc1cc(/C=N/NC(=O)c2cc(-c3ccc(OC(C)C)cc3)ccn2)cc(OC)c1 [Compound 46, (E)-N′-(3,5-dimethoxybenzylidene)-4-(4-isopropoxyphenyl) picolinohydrazide] | – | – | > 10 | > 10 |
| CC(C)Oc1ccc(-c2ccnc(C(=O)N/N=C/c3cccs3)c2)cc1 [Compound 47, (E)-4-(4-isopropoxyphenyl)-N′-(thiophen-2-ylmethylene) picolinohydrazide] | – | – | > 10 | > 10 |
| COc1cc(/C=N/NC(=O)c2cc(-c3ccc(OC4CCCC4)cc3)ccn2)cc(OC)c1 [Compound 48, (E)-4-(4-(cyclopentyloxy)phenyl)-N′-(3,5-dimethoxybenzylidene) picolinohydrazide] | – | – | > 10 | > 10 |
| COc1cc(/C=N/NC(=O)c2cc(-c3ccc(OC(F)(F)F)cc3)ccn2)cc(OC)c1 [Compound 49, (E)-N′-(3,5-dimethoxybenzylidene)-4-(4-(trifluoromethoxy)phenyl) picolinohydrazide] | – | – | > 10 | > 10 |
| O=C(N/N=C/c1cccs1)c1cc(-c2ccc(OC3CCCC3)cc2)ccn1 [Compound 50, (E)-4-(4-(cyclopentyloxy)phenyl)-N′-(thiophen-2-ylmethylene) picolinohydrazide] | – | – | > 10 | > 10 |
| O=C(N/N=C/c1cccs1)c1cc(-c2ccc(OC(F)(F)F)cc2)ccn1 [Compound 51, (E)-N′-(thiophen-2-ylmethylene)-4-(4-(trifluoromethoxy)phenyl) picolinohydrazide] | – | – | > 10 | > 10 |
| COc1cc(/C=N/NC(=O)c2ccnc(-c3ccc(Cl)cc3)n2)cc(OC)c1 [Compound 52, (E)-2-(4-chlorophenyl)-N′-(3,5-dimethoxybenzylidene)pyrimidine-4-carbohydrazide] | – | – | > 10 | > 10 |
| CCOc1ccc(-c2nccc(C(=O)N/N=C/c3cc(OC)cc(OC)c3)n2)cc1 [Compound 53, (E)-N′-(3,5-dimethoxybenzylidene)-2-(4-ethoxyphenyl)pyrimidine-4-carbohydrazide] | – | – | > 10 | > 10 |
| COc1cc(/C=N/NC(=O)c2ccnc(-c3ccc(OC4CCCC4)cc3)n2)cc(OC)c1 [Compound 55, (E)-2-(4-(cyclopentyloxy)phenyl)-N′-(3,5-dimethoxybenzylidene)pyrimidine-4-carbohydrazide] | – | – | > 10 | > 10 |
| COc1cc(/C=N/NC(=O)c2ccnc(-c3ccc(OC(F)(F)F)cc3)n2)cc(OC)c1 [Compound 56, (E)-N′-(3,5-dimethoxybenzylidene)-2-(4-(trifluoromethoxy)phenyl) pyrimidine-4-carbohydrazide] | – | – | > 10 | > 10 |
| COc1ccc(-c2nccc(C(=O)N/N=C/c3cc(OC)cc(OC)c3)n2)cc1 [Compound 57, (E)-N′-(3,5-dimethoxybenzylidene)-2-(4-methoxyphenyl)pyrimidine-4-carbohydrazide] | – | – | > 10 | > 10 |
| CCCOc1ccc(-c2nccc(C(=O)N/N=C/c3cc(OC)cc(OC)c3)n2)cc1 [Compound 58, (E)-N′-(3,5-dimethoxybenzylidene)-2-(4-propoxyphenyl)pyrimidine-4-carbohydrazide] | – | – | > 10 | > 10 |
| CCCCOc1ccc(-c2nccc(C(=O)N/N=C/c3cc(OC)cc(OC)c3)n2)cc1 [Compound 59, (E)-2-(4-butoxyphenyl)-N′-(3,5-dimethoxybenzylidene)pyrimidine-4-carbohydrazide] | – | – | > 10 | > 10 |
| CCCCOc1ccc(-c2ccnc(C(=O)N/N=C/c3cc(OC)cc(OC)c3)n2)cc1 [Compound 67, (E)-4-(4-butoxyphenyl)-N′-(3,5-dimethoxybenzylidene)pyrimidine-2-carbohydrazide] | – | – | > 10 | > 10 |
| COc1cc(/C=N/N(C)C(=O)c2ccc(-c3ccc(Cl)cc3)o2)cc(OC)c1 [Compound 78, (E)-5-(4-chlorophenyl)-N′-(3,5-dimethoxybenzylidene)-N′-methylfuran-2-carbohydrazide] | – | – | > 30 | > 30 |
| CCOc1ccc(-c2cccc(C(=O)N(C)/N=C/c3cc(OC)cc(OC)c3)n2)cc1 [Compound 79, (E)-N′-(3,5-dimethoxybenzylidene)-6-(4-ethoxyphenyl)-N′-methylpicolinohydrazide] | – | – | > 10 | > 10 |

Source: patent US20240335420A1, “N-ACYLHYDRAZONE COMPOUNDS CAPABLE OF INHIBITING NAV 1.7 AND/OR NAV 1.8, PROCESSES FOR THE PREPARATION THEREOF, COMPOSITIONS, USES, METHODS FOR TREATMENT USING SAME AND KITS” (EUROFARMA LABORATÓRIOS S.A., priority 2021, published 2024)
